Calls of active or inactive are those of the source.
How the values were obtained:
[1] = target: T1, Nucleotide-binding oligomerization domain-containing protein 2 (Homo sapiens, UniProt Q9HC29); assay: PubChem AID 2334; assay type: functional
HEK293 [2] = assay: cells; conditions: Homo sapiens
Tumor necrosis factor = Tumor necrosis factor (Homo sapiens, UniProt P01375); assay: TNFa-triggered NF-kB activation inhibitors, SAR follow-up, cell-based, revised (AID 2337); assay type: functional
HEK293 [3] = assay: cells; assay type: functional, cell-based; conditions: Homo sapiens
HEK293 [4] = assay: NOD2 signaling inhibitors in MDP-stimulated cells, cell-based, uHTS, luminescence (AID 2001); assay type: functional; conditions: Homo sapiens
HEK293 [5] = assay: cells; assay type: functional, cell-based; conditions: Homo sapiens; remark: listed apart in the source
HEK293 [6] = assay: NOD1 signaling inhibitors, primary screen, cell-based, luminescence, uHTS (AID 1578); assay type: functional; conditions: Homo sapiens
Phospholipase A2 = Phospholipase A2 (Homo sapiens, UniProt P04054); assay type: functional;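 further: confirmatory dose-response counterscreen on phospholipase A2, testing hits that came from an ultra-high-throughput screen for ATG4B inhibitors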
Cysteine protease ATG4B = target: T2, Cysteine protease ATG4B (Homo sapiens, UniProt Q9Y4P1); assay type: functional;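 further: Fluorescence-based dose-response confirmation assay measuring inhibition of ATG4B activity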
T2 sequence (Q9Y4P1 whole entry): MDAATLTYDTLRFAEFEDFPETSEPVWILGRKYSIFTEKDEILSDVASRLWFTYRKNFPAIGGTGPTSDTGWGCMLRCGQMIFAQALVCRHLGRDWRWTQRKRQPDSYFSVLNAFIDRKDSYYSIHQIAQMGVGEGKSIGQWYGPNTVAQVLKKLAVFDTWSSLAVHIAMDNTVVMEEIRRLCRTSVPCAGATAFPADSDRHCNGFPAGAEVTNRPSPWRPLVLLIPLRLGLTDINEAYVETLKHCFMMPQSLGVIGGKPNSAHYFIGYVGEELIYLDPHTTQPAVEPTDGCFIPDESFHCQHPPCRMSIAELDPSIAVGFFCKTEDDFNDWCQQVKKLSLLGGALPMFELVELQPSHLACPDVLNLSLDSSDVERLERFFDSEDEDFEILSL

[7] = target: T1, Nucleotide-binding oligomerization domain-containing protein 2; assay: NOD2 signaling inhibitors, cell-based, luminescence, uHTS, HEK293 (AID 1566); assay type: functional
HEK293 [8] = assay: cells; assay type: functional, cell-based; conditions: Homo sapiens; remark: listed apart in the source
[9] = target: T3, Nucleotide-binding oligomerization domain-containing protein 1 (Homo sapiens, UniProt Q9Y239); assay: NOD1 signaling inhibitors, SAR follow-up, revised (AID 2333); assay type: functional
T3 sequence (Q9Y239 whole entry): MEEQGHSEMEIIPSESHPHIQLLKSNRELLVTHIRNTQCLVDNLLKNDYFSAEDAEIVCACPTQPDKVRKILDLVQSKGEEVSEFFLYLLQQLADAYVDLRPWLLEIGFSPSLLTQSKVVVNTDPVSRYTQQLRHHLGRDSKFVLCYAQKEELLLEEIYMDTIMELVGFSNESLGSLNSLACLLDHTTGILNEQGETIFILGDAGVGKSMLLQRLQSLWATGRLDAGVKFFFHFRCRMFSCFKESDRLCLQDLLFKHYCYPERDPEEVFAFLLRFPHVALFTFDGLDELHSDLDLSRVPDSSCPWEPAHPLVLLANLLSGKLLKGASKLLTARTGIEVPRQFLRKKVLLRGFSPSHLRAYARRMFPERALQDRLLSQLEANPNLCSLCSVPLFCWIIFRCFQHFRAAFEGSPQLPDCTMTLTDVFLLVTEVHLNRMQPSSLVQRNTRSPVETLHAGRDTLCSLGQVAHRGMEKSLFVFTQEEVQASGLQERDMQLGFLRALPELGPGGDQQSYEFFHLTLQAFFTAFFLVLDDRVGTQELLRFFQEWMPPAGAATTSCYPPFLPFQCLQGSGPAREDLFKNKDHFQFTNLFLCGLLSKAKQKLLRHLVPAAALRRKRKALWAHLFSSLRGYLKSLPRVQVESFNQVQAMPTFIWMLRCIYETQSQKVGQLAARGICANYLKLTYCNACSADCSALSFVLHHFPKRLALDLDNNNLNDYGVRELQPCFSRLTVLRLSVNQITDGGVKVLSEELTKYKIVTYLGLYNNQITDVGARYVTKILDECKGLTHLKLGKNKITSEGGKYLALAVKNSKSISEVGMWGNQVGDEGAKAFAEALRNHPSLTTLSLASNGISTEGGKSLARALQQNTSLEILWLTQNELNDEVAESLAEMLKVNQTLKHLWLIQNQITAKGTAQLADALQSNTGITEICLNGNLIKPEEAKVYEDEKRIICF

[10] = HEp-2 cell cytotoxicity, dose response, cytotoxicity control for RSV inhibitor project, HTS (AID 2410); assay type: functional; conditions: human respiratory syncytial virus
[11] = target: T4, Microphthalmia-associated transcription factor (Homo sapiens, UniProt O75030); assay: TRPM1 promoter luciferase signal decrease, dose response, MITF inhibitor project, cell-based, SK-MEL-5, cherry-picked, set 3 (AID 493073); assay type: functional
T4 sequence (O75030 whole entry): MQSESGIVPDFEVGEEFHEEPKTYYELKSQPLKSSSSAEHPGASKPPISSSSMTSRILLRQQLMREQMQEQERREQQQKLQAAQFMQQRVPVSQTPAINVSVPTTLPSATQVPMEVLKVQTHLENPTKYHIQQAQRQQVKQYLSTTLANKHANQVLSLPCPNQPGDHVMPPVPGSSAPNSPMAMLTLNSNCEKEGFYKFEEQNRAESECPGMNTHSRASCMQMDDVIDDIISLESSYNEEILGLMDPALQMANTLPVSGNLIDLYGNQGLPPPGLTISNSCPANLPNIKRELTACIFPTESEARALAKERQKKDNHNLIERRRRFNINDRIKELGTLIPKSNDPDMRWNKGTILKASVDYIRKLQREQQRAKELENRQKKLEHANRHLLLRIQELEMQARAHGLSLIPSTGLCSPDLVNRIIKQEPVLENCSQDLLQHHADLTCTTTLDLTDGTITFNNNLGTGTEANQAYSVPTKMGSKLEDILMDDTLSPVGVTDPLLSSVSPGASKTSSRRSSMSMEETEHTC

[12] = target: T5, Zinc finger protein mex-5 (Caenorhabditis elegans, UniProt Q9XUB2); assay: MEX-5/TCR-2 RNA interaction inhibitors, dose response, biochemical, C. elegans, fluorescence polarization (AID 1960)
T5 sequence (Q9XUB2 whole entry): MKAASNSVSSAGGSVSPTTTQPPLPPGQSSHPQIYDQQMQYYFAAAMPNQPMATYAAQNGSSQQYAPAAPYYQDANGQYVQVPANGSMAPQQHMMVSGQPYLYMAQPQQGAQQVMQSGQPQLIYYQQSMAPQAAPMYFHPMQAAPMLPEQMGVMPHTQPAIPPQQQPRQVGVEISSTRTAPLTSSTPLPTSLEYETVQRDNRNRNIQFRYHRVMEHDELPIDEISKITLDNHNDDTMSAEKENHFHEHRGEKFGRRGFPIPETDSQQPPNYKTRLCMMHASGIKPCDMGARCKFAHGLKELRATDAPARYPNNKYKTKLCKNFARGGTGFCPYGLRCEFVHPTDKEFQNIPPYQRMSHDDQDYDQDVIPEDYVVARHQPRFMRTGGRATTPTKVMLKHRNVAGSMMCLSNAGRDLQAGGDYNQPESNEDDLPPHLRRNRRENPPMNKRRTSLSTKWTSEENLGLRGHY

Vero = assay: cells; assay type: functional; conditions: Chlorocebus sabaeus
[13] = target: T6, RNA-binding protein pos-1 (Caenorhabditis elegans, UniProt G5EF15); assay: inhibitors of POS-1/mex-3 RNA binding, dose response, biochemical, fluorescence polarization (AID 1964);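 further: purified POS-1 fused to maltose binding protein made in E. coli; potency of compounds blocking POS-1 binding to fluorescent RNA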
T6 sequence (G5EF15 whole entry): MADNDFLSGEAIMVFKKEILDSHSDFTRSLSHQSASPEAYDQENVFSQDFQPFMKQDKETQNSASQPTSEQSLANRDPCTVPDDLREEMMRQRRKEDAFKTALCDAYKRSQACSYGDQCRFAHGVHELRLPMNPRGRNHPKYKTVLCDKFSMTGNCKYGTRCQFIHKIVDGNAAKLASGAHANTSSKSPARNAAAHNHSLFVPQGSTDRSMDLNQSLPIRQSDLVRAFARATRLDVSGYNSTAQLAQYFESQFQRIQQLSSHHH

[14] = HeLa cell cytotoxicity, dose response, cytotoxicity control for MgcRacGAP inhibitor project (AID 624300); assay type: functional
[15] = target: Dual specificity protein phosphatase 3 (Homo sapiens, UniProt P51452); assay: SAR VHR1 Fluorescent Assay for In Vitro dose response studies Set 2. [Related pubchem assays (depositor defined):AID1654, AID1661, AID1878]; assay type: functional
[16] = target: T7, Tyrosine-protein phosphatase non-receptor type 7 (Homo sapiens, UniProt P35236); assay: SAR analysis of chemical inhibitors of HePTP using a Fluorescent assay - Set 2. [Related pubchem assays (depositor defined):AID1059, AID1077, AID1661, AID2085, AID521]; assay type: functional
T7 sequence (P35236 whole entry): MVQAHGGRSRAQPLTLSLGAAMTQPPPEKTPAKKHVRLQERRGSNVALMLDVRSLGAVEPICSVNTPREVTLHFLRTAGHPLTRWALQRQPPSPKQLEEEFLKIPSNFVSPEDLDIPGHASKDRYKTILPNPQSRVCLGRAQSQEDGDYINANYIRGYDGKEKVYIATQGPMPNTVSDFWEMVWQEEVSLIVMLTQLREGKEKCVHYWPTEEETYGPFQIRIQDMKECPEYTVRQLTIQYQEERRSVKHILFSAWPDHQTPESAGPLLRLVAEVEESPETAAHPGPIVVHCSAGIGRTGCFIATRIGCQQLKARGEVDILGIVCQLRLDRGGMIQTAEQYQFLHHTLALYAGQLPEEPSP

T1 sequence (Q9HC29 whole entry, the tested form may be a part): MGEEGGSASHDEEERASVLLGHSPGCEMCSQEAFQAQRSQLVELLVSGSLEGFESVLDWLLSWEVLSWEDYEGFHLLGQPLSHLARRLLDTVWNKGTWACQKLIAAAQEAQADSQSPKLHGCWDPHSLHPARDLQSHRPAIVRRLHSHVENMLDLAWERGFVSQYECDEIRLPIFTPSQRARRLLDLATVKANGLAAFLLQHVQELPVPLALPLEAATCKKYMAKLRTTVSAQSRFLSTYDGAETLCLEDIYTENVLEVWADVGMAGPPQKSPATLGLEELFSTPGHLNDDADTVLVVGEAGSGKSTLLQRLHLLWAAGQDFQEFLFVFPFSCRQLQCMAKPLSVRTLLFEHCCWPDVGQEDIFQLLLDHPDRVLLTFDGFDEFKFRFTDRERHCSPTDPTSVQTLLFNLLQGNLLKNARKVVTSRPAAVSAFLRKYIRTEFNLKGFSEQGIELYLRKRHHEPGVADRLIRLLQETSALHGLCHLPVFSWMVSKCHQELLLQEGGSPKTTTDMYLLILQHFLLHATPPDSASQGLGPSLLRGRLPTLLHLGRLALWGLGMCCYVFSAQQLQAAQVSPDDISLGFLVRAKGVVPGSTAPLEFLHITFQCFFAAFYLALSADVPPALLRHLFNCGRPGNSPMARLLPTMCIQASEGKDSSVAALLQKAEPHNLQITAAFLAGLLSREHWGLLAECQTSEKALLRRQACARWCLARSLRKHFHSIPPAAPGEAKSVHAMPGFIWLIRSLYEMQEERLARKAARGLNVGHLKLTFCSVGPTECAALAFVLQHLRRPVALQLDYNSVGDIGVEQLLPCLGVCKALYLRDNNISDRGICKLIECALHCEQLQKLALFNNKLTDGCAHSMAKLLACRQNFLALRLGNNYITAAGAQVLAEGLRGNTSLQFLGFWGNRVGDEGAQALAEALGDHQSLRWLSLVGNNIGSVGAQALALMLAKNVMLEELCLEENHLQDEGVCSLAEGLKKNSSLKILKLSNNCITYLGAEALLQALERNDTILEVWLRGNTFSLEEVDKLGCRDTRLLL
Chain of Tumor necrosis factor (P01375 whole entry): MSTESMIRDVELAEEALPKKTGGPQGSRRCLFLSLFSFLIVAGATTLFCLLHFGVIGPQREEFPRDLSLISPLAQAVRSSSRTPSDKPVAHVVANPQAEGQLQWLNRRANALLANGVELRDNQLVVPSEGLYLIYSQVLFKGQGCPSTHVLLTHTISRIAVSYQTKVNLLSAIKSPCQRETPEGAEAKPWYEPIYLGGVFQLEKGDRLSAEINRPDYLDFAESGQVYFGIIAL
Chain of Dual specificity protein phosphatase 3 (P51452 whole entry): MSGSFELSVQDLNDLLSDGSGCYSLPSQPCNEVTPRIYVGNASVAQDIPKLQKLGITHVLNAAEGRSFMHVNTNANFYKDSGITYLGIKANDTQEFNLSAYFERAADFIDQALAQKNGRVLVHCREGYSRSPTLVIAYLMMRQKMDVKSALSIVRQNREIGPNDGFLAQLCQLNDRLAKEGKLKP
Chain of Phospholipase A2 (P04054 whole entry): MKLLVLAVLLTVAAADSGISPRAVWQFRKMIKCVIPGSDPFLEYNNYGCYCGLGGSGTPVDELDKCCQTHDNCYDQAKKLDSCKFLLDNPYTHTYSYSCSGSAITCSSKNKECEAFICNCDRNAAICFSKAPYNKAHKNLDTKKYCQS

Row | SMILES | IC50 [1] | IC50 (HEK293 [2]) | IC50 (Tumor necrosis factor) | IC50 (HEK293 [3]) | IC50 (HEK293 [4]) | IC50 (HEK293 [5]) | EC50 (HEK293 [6]) | IC50 (Phospholipase A2) | IC50 (Cysteine protease ATG4B) | EC50 [7] | IC50 (HEK293 [8]) | IC50 [9] | CC50 [10] | AC50 [11] | EC50 [12] | CC50 (Vero) | EC50 [13] | CC50 [14] | IC50 [15] | IC50 [16]
1 | O=C(CSc1nc2ccccc2c(=O)n1Cc1ccccc1)Nc1ccc(Br)cc1C(=O)O | 7.04 µM (active) | > 20 µM (inactive) | 5.7 µM (active) | > 20 µM (inactive) | 10.2 µM (inactive) | > 20 µM (inactive) | 6.11 µM (active) | 12.1 µM (active) | 13.9 µM (active) | 7.92 µM (active) | > 20 µM (inactive) | 5.99 µM (active) | 11.1 µM (active) | – | – | – | – | – | – | –
2 | C=CCN1C(=O)NC(=O)/C(=C/C=C/c2ccccc2)C1=O | – | – | – | > 20 µM (inactive) | 12.4 µM (inactive) | > 20 µM (inactive) | > 20 µM (inactive) | – | – | > 20 µM (inactive) | 9.21 µM (active) | – | – | 5.94 µM (active) | > 300 µM (not active) | > 25 µM (active) | > 300 µM (not active) | 75.4 µM (active) | – | –
3 | NS(=O)(=O)c1ccc(NC(=S)N2CCN(c3ccccc3)CC2)cc1 | – | – | – | – | – | – | – | – | – | – | – | – | – | – | – | – | – | – | 67.2 µM (active) | 72.8 µM (active)

From ChEMBL document CHEMBL1201862, “PubChem BioAssay data set” (2004)
